Test results published in patent US10660877B2 (BRISTOL-MYERS SQUIBB COMPANY, priority 2016, dated 2020).

Tests used:
human TLR8 = human TLR8 (Homo sapiens (Human), UniProt Q9NR97); assay: TLR8 inhibition reporter assay (HEK-Blue cells, SEAP reporter, R848 stimulation); conditions: read-out: TLR8 IC50, HEK-Blue cells overexpressing human TLR8, R848 15.9 μM;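 note: compounds tested from 0.05 nM to 50 µM, 22 h at 37 °C, SEAP measured with HEK-Blue Detection, inhibition relative to agonist plus DMSO versus a known inhibitor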
human TLR7 = human TLR7 (Homo sapiens (Human), UniProt Q9NYK1); assay: TLR7 inhibition reporter assay (HEK-Blue cells, SEAP reporter, gardiquimod stimulation); format: cell-based; conditions: HEK-Blue cells overexpressing human TLR7, gardiquimod 7.5 μM
human TLR9 = human TLR9 (Homo sapiens (Human), UniProt Q9NR96); assay: TLR9 inhibition reporter assay (HEK-Blue cells, SEAP reporter, ODN2006 stimulation); conditions: read-out: TLR9 IC50, HEK-Blue cells overexpressing human TLR9, ODN2006 5 nM;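 note: compounds tested over 0.05 nM to 50 µM, 22 h incubation, inhibition taken as SEAP signal drop from agonist plus DMSO wells toward a known inhibitor control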
human TLR9, sequence (Q9NR96 26-1032): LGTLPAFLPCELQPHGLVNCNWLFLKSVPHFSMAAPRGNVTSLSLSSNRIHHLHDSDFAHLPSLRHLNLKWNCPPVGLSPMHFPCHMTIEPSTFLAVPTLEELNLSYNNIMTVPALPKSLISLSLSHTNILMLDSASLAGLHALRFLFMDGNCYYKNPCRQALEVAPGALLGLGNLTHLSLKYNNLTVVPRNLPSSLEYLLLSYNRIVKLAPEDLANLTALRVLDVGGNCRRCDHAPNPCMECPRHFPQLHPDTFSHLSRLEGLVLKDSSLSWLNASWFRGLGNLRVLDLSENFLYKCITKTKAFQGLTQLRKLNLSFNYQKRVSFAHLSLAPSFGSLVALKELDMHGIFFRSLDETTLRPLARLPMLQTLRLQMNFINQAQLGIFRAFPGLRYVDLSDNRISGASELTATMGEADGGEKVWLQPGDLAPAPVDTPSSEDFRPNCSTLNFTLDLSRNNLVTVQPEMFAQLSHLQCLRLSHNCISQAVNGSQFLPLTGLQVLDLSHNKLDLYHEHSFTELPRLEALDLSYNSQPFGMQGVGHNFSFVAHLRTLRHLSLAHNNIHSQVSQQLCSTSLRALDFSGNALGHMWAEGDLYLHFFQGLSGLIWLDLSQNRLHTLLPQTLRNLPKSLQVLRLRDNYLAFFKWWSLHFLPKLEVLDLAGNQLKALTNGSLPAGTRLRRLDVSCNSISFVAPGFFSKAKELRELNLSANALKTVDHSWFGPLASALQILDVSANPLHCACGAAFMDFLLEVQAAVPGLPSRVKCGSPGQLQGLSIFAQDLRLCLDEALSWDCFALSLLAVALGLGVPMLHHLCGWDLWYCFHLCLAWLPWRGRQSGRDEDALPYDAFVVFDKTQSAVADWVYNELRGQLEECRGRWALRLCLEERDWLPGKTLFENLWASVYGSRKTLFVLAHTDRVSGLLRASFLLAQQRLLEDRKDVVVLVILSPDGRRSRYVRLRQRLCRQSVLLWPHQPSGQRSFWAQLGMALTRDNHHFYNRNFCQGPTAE

human TLR7, sequence (Q9NYK1 27-1049): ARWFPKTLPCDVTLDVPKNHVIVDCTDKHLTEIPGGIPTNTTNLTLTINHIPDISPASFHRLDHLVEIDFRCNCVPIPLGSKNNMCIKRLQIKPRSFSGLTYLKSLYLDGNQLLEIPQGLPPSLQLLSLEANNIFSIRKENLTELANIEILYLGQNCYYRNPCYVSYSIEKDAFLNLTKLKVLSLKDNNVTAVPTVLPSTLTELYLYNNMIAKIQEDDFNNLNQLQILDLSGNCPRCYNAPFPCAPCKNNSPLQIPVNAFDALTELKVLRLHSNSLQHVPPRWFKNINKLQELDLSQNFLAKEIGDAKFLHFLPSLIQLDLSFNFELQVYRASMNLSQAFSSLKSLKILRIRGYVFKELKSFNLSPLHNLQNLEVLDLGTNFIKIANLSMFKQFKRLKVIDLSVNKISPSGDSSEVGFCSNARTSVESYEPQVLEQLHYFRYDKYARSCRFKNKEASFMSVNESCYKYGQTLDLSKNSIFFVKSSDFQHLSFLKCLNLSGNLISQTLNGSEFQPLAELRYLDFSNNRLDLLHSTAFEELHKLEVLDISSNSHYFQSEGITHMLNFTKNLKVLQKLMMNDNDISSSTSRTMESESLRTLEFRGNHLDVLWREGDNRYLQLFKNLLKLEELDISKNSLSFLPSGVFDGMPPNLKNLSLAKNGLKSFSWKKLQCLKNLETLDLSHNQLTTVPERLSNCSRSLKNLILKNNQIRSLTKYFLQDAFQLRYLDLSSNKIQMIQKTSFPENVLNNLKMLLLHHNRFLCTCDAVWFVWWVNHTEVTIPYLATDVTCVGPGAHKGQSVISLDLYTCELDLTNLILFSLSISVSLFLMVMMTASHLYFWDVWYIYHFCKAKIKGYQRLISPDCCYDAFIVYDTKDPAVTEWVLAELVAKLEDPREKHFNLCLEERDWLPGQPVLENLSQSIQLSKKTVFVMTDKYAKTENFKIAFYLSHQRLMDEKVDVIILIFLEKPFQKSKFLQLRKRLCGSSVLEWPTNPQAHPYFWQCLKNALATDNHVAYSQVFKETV
human TLR8, sequence (Q9NR97 27-1041): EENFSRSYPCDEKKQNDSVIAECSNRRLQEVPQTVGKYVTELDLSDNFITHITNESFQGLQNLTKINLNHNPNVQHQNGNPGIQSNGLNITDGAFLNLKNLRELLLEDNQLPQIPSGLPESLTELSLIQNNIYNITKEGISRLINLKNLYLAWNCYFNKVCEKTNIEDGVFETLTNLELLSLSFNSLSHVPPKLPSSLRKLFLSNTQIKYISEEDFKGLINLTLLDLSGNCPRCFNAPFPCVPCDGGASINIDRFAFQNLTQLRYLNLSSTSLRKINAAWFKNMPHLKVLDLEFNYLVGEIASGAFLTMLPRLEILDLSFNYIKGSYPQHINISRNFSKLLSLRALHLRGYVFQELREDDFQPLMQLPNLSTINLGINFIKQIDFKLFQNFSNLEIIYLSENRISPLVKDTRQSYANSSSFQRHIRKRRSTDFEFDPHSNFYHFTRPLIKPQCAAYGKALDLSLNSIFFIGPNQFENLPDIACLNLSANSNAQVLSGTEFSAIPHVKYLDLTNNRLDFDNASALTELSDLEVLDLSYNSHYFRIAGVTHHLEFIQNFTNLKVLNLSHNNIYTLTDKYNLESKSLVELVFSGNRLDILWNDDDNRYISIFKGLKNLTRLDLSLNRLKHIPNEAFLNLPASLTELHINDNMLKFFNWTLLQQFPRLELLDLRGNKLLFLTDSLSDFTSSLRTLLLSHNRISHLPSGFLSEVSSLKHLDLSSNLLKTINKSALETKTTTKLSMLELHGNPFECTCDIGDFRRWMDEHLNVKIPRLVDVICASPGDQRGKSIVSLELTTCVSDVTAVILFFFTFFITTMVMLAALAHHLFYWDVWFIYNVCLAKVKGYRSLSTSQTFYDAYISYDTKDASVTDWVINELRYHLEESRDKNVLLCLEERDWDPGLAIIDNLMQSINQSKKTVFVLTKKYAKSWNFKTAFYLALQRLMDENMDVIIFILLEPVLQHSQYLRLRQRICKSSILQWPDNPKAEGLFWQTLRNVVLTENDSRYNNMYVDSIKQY

| IC50 (human TLR8) [nM] | IC50 (human TLR7) [nM] | IC50 (human TLR9) [nM] | Structure (SMILES) |
| --- | --- | --- | --- |
| 5.8 | 4.2 | 340 | Cc1cc(-c2[nH]c3ccc(C4CCN(C5CC(C)OC6(CC6)C5)CC4)cc3c2C(C)C)cc(C)n1 (stereo not drawn) [Example 456, 2-(2,6-dimethylpyridin-4-yl)-3-isopropyl-5-(1-(5-methyl-4-oxaspiro[2.5]octan-7-yl)piperidin-4-yl)-1H-indole] |
| 8.7 | 2.7 | 274 | Cc1cc(-c2[nH]c3ccc(C4CCN(C5CCCOC5)CC4)cc3c2C(C)C)cc(C)n1 (stereo not drawn) [Example 457, 2-(2,6-dimethylpyridin-4-yl)-3-isopropyl-5-(1-(tetrahydro-2H-pyran-3-yl)piperidin-4-yl)-1H-indole] |
| 21.3 | 16.6 | 534 | Cc1cc(-c2[nH]c3ccc(C4CCN(C5CCOC6CCCC65)CC4)cc3c2C(C)C)cc(C)n1 (stereo not drawn) [Example 458, 2-(2,6-dimethylpyridin-4-yl)-3-isopropyl-5-(1-(octahydrocyclopenta[b]pyran-4-yl)piperidin-4-yl)-1H-indole] |
| 3.6 | 3.7 | 1220 | Cc1cc(-c2[nH]c3ccc(C4CCN(C5CCS(=O)(=O)CC5)CC4)cc3c2C(C)C)cc(C)n1 [Example 459, 4-(4-(2-(2,6-dimethylpyridin-4-yl)-3-isopropyl-1H-indol-5-yl)piperidin-1-yl)tetrahydro-2H-thiopyran 1,1-dioxide] |
| 5.8 | 6.2 | 396 | Cc1cc(-c2[nH]c3ccc(C4CCN(Cc5ncccn5)CC4)cc3c2C(C)C)cc(C)n1 [Example 460, 2-(2,6-dimethylpyridin-4-yl)-3-isopropyl-5-(1-(pyrimidin-2-ylmethyl)piperidin-4-yl)-1H-indole] |
| 7.5 | 9.3 | 621 | Cc1cc(-c2[nH]c3ccc(C4CCN(Cc5ccnn5C)CC4)cc3c2C(C)C)cc(C)n1 [Example 461, 2-(2,6-dimethylpyridin-4-yl)-3-isopropyl-5-(1-((1-methyl-1H-pyrazol-5-yl)methyl)piperidin-4-yl)-1H-indole] |
| 210 | 70.4 | 5260 | Cc1cc(-c2[nH]c3ccc(C4CCN(Cc5nn[nH]n5)CC4)cc3c2C(C)C)cc(C)n1 [Example 462, 5-(1-((2H-tetrazol-5-yl)methyl)piperidin-4-yl)-2-(2,6-dimethylpyridin-4-yl)-3-isopropyl-1H-indole] |
| 17.7 | 8.3 | 3360 | Cc1cc(-c2[nH]c3ccc(C4CCN(Cc5ncon5)CC4)cc3c2C(C)C)cc(C)n1 [Example 463, 3-((4-(2-(2,6-dimethylpyridin-4-yl)-3-isopropyl-1H-indol-5-yl)piperidin-1-yl)methyl)-1,2,4-oxadiazole] |
| 6.3 | 6.3 | 2560 | Cc1cc(-c2[nH]c3ccc(C4CCN(Cc5nncn5C)CC4)cc3c2C(C)C)cc(C)n1 [Example 464, 2-(2,6-dimethylpyridin-4-yl)-3-isopropyl-5-(1-((4-methyl-4H-1,2,4-triazol-3-yl)methyl)piperidin-4-yl)-1H-indole] |
| 4.7 | 7 | 147 | Cc1cc(-c2[nH]c3ccc(C4CCN(CC5CCN(C(C)C)C5)CC4)cc3c2C(C)C)cc(C)n1 (stereo not drawn) [Example 465, 2-(2,6-dimethylpyridin-4-yl)-3-isopropyl-5-(1-((1-isopropylpyrrolidin-3-yl)methyl)piperidin-4-yl)-1H-indole] |
| 3.7 | 6.5 | 273 | Cc1cc(-c2[nH]c3ccc(C4CCN(CC5CCNC5)CC4)cc3c2C(C)C)cc(C)n1 (stereo not drawn) [Example 466, 2-(2,6-dimethylpyridin-4-yl)-3-isopropyl-5-(1-(pyrrolidin-3-ylmethyl)piperidin-4-yl)-1H-indole] |
| 5.8 | 2.5 | 155 | Cc1cc(-c2[nH]c3ccc(C4CCN(CC5CCC5)CC4)cc3c2C(C)C)cc(C)n1 [Example 467, 5-(1-(cyclobutylmethyl)piperidin-4-yl)-2-(2,6-dimethylpyridin-4-yl)-3-isopropyl-1H-indole] |
| 35.5 | 17.8 | 1340 | Cc1cc(-c2[nH]c3ccc(C4CCN(CC5CCCC5)CC4)cc3c2C(C)C)cc(C)n1 [Example 468, 5-(1-(cyclopentylmethyl)piperidin-4-yl)-2-(2,6-dimethylpyridin-4-yl)-3-isopropyl-1H-indole] |
| 2.9 | 2.1 | 280 | Cc1cc(-c2[nH]c3ccc(C4CCN(CC5CCOC5)CC4)cc3c2C(C)C)cc(C)n1 (stereo not drawn) [Example 469, 2-(2,6-dimethylpyridin-4-yl)-3-isopropyl-5-(1-((tetrahydrofuran-3-yl)methyl)piperidin-4-yl)-1H-indole] |
| 23.8 | 5.9 | 532 | Cc1cc(-c2[nH]c3ccc(C4CCN(CC(C)(C)C)CC4)cc3c2C(C)C)cc(C)n1 [Example 470, 2-(2,6-dimethylpyridin-4-yl)-3-isopropyl-5-(1-neopentylpiperidin-4-yl)-1H-indole] |
| 8 | 2.4 | 610 | Cc1cc(-c2[nH]c3ccc(C4CCN(CC(C)C)CC4)cc3c2C(C)C)cc(C)n1 [Example 471, 2-(2,6-dimethylpyridin-4-yl)-5-(1-isobutylpiperidin-4-yl)-3-isopropyl-1H-indole] |
| 13.2 | 7.5 | 601 | Cc1cc(-c2[nH]c3ccc(C4CCN(C(C)CF)CC4)cc3c2C(C)C)cc(C)n1 (stereo not drawn) [Example 472, 2-(2,6-dimethylpyridin-4-yl)-5-(1-(1-fluoropropan-2-yl)piperidin-4-yl)-3-isopropyl-1H-indole] |
| 21.1 | 10.1 | 835 | Cc1cc(-c2[nH]c3ccc(C4CCN(C(CF)CF)CC4)cc3c2C(C)C)cc(C)n1 [Example 473, 5-(1-(1,3-difluoropropan-2-yl)piperidin-4-yl)-2-(2,6-dimethylpyridin-4-yl)-3-isopropyl-1H-indole] |
| 3.2 | 2.5 | 506 | Cc1cc(-c2[nH]c3ccc(C4CCN(CC5CC5)CC4)cc3c2C(C)C)cc(C)n1 [Example 474, 5-(1-(cyclopropylmethyl)piperidin-4-yl)-2-(2,6-dimethylpyridin-4-yl)-3-isopropyl-1H-indole] |
| 2.2 | 4.1 | 335 | Cc1cc(-c2[nH]c3ccc(C4CCN(CC5(C)COC5)CC4)cc3c2C(C)C)cc(C)n1 [Example 475, 2-(2,6-dimethylpyridin-4-yl)-3-isopropyl-5-(1-((3-methyloxetan-3-yl)methyl)piperidin-4-yl)-1H-indole] |
| 1040 | 6070 | 3260 | CC(C)c1c(-c2ccnc(C(=O)NCC(F)(F)F)c2)[nH]c2ccc(C3CCNCC3)cc12 [Example 476, 4-(3-isopropyl-5-(piperidin-4-yl)-1H-indol-2-yl)-N-(2,2,2-trifluoroethyl) picolinamide] |
| 1110 | 3080 | 2190 | CC(C)c1c(-c2ccnc(C(=O)Nc3nccs3)c2)[nH]c2ccc(C3CCNCC3)cc12 [Example 477, 4-(3-isopropyl-5-(piperidin-4-yl)-1H-indol-2-yl)-N-(thiazol-2-yl) picolinamide] |
| 7060 | 2880 | 707 | Cc1cc(-c2[nH]c3ccc(C4CCNCC4)cc3c2C(C)C)cc(N2CCN(C)CC2)n1 [Example 480, 3-isopropyl-2-(2-methyl-6-(4-methylpiperazin-1-yl)pyridin-4-yl)-5-(piperidin-4-yl)-1H-indole] |
| 95.4 | 16 | 677 | CC(C)c1c(-c2cc(C3CC3)ncc2F)[nH]c2ccc(C3CCNCC3)cc12 [Example 481, 2-(2-cyclopropyl-5-fluoropyridin-4-yl)-3-isopropyl-5-(piperidin-4-yl)-1H-indole] |
| 19.2 | 10.6 | 3690 | CCc1cc(-c2[nH]c3ccc(C4CCNCC4)cc3c2C(C)C)c(F)cn1 [Example 482, 2-(2-ethyl-5-fluoropyridin-4-yl)-3-isopropyl-5-(piperidin-4-yl)-1H-indole] |
| 96.3 | 77.6 | 279 | Cc1nc(CN2CCC(c3ccc4[nH]c(-c5ccnc(C6CC6)c5)c(C(C)C)c4c3)CC2)c[nH]1 [Example 484, 2-(2-cyclopropylpyridin-4-yl)-3-isopropyl-5-(1-((2-methyl-1H-imidazol-4-yl)methyl)piperidin-4-yl)-1H-indole] |
| 213 | 49 | 2760 | COc1cc(-c2[nH]c3ccc(C4CCNCC4)cc3c2C(C)C)cc(C2CC2)n1 [Example 486, 2-(2-cyclopropyl-6-methoxypyridin-4-yl)-3-isopropyl-5-(piperidin-4-yl)-1H-indole] |
| 79.1 | 33.4 | 2140 | CCc1cc(-c2[nH]c3ccc(C4CCNCC4)cc3c2C(C)C)cc(OC)n1 [Example 487, 2-(2-ethyl-6-methoxypyridin-4-yl)-3-isopropyl-5-(piperidin-4-yl)-1H-indole] |
| 67.4 | 186 | > 50000 | Cc1cc(-c2[nH]c3ccc(C4CCNC(=O)C4)cc3c2C(C)C)ccn1 (stereo not drawn) [Example 490, 4-(3-isopropyl-2-(2-methylpyridin-4-yl)-1H-indol-5-yl)piperidin-2-one] |
| 54.1 | 15.8 | 539 | Cc1cc(-c2[nH]c3ccc(C4CCNCC4)cc3c2CC(F)F)cc(C)n1 [Example 492, 3-(2,2-difluoroethyl)-2-(2,6-dimethylpyridin-4-yl)-5-(piperidin-4-yl)-1H-indole] |
